Reference: ChEMBL document CHEMBL3792311, “In vitro and in vivo activity of ML302F: a thioenolate inhibitor of VIM-subfamily metallo -lactamases” (Medchemcomm, 2016)
≈ marks a conversion by molar mass, not a printed value.

Key:
Assay type in all cases: functional
Klebsiella pneumoniae [1] = experiment: Antibacterial activity against VIM1 carbapenemase producing multidrug-resistant Klebsiella pneumoniae GR54 clinical isolate by broth microtiter dilution method
Klebsiella pneumoniae [2] = experiment: Antibacterial activity against VIM1 carbapenemase producing multidrug-resistant Klebsiella pneumoniae 177 clinical isolate by broth microtiter dilution method
Providencia stuartii [3] = experiment: Antibacterial activity against VIM1 carbapenemase producing multidrug-resistant Providencia stuartii 67 clinical isolate by broth microtiter dilution method
Providencia stuartii [4] = experiment: Antibacterial activity against VIM1 carbapenemase producing multidrug-resistant Providencia stuartii 70 clinical isolate by broth microtiter dilution method
Pseudomonas aeruginosa [5] = experiment: Antibacterial activity against VIM2 carbapenemase producing multidrug-resistant Pseudomonas aeruginosa 47 clinical isolate by broth microtiter dilution method
Pseudomonas aeruginosa [6] = experiment: Antibacterial activity against VIM2 carbapenemase producing multidrug-resistant Pseudomonas aeruginosa 50 clinical isolate by broth microtiter dilution method
Pseudomonas aeruginosa [7] = experiment: Antibacterial activity against VIM2 carbapenemase producing multidrug-resistant Pseudomonas aeruginosa GR57 clinical isolate by broth microtiter dilution method
Pseudomonas aeruginosa [8] = experiment: Antibacterial activity against VIM2 carbapenemase producing multidrug-resistant Pseudomonas aeruginosa GR58 clinical isolate by broth microtiter dilution method
Pseudomonas aeruginosa [9] = experiment: Antibacterial activity against VIM2 carbapenemase producing multidrug-resistant Pseudomonas aeruginosa GR64 clinical isolate by broth microtiter dilution method
Pseudomonas aeruginosa [10] = experiment: Antibacterial activity against VIM2 carbapenemase producing multidrug-resistant Pseudomonas aeruginosa 8 clinical isolate by broth microtiter dilution method
Pseudomonas aeruginosa [11] = experiment: Antibacterial activity against VIM2 carbapenemase producing multidrug-resistant Pseudomonas aeruginosa 9 clinical isolate by broth microtiter dilution method
Klebsiella pneumoniae [12] = experiment: Antibacterial activity against VIM4 carbapenemase producing multidrug-resistant Klebsiella pneumoniae 128 clinical isolate by broth microtiter dilution method
Klebsiella pneumoniae [13] = experiment: Antibacterial activity against VIM4 carbapenemase producing multidrug-resistant Klebsiella pneumoniae 101 clinical isolate by broth microtiter dilution method
Enterobacter cloacae = experiment: Antibacterial activity against VIM4 carbapenemase producing multidrug-resistant Enterobacter cloacae 102 clinical isolate by broth microtiter dilution method
Klebsiella oxytoca [14] = experiment: Antibacterial activity against VIM4 carbapenemase producing multidrug-resistant Klebsiella oxytoca 126 clinical isolate by broth microtiter dilution method
Klebsiella oxytoca [15] = experiment: Antibacterial activity against VIM4 carbapenemase producing multidrug-resistant Klebsiella oxytoca 95 clinical isolate by broth microtiter dilution method
Pseudomonas aeruginosa [16] = experiment: Antibacterial activity against VIM2 carbapenemase producing multidrug-resistant Pseudomonas aeruginosa 11 clinical isolate by broth microtiter dilution method
Pseudomonas aeruginosa [17] = experiment: Antibacterial activity against VIM2 carbapenemase producing multidrug-resistant Pseudomonas aeruginosa 6 clinical isolate by broth microtiter dilution method
Pseudomonas aeruginosa [18] = experiment: Antibacterial activity against VIM2 carbapenemase producing multidrug-resistant Pseudomonas aeruginosa 12 clinical isolate by broth microtiter dilution method
Pseudomonas aeruginosa [19] = experiment: Antibacterial activity against VIM2 carbapenemase producing multidrug-resistant Pseudomonas aeruginosa 13 clinical isolate by broth microtiter dilution method
Pseudomonas aeruginosa [20] = experiment: Antibacterial activity against VIM2 carbapenemase producing multidrug-resistant Pseudomonas aeruginosa GR57 clinical isolate infected in Galleria mellonella larvae assessed as survival rate at 0.6 mg/kg measured at 96 hrs; settings: GR57, 96 h
Escherichia coli = experiment: Antibacterial activity against VIM4 carbapenemase producing multidrug-resistant Escherichia coli 98 clinical isolate infected in Galleria mellonella larvae assessed as survival rate at 0.6 mg/kg measured at 96 hrs; settings: Escherichia coli, 98, 96 h
Klebsiella pneumoniae [21] = experiment: Antibacterial activity against VIM4 carbapenemase producing multidrug-resistant Klebsiella pneumoniae 120 clinical isolate infected in Galleria mellonella larvae assessed as survival rate at 0.6 mg/kg measured at 96 hrs; settings: Klebsiella pneumoniae, 120, 96 h
Pseudomonas aeruginosa [22] = experiment: Antibacterial activity against VIM2 carbapenemase producing multidrug-resistant Pseudomonas aeruginosa GR62 clinical isolate by broth microtiter dilution method

`C[C@@H](O)[C@H]1C(=O)N2C(C(=O)O)=C(S[C@@H]3CN[C@H](C(=O)N(C)C)C3)[C@H](C)[C@H]12` [MEROPENEM] showed an MIC (Klebsiella pneumoniae [1]) of 128 µg/mL (≈ 334 µM), an MIC (Klebsiella pneumoniae [2]) of 1 µg/mL (≈ 2.61 µM) and an MIC (Providencia stuartii [3]) of 8 µg/mL (≈ 20.9 µM). It also gave an MIC (Providencia stuartii [4]) of 8 µg/mL (≈ 20.9 µM), an MIC (Pseudomonas aeruginosa [5]) of 32 µg/mL (≈ 83.4 µM) and an MIC (Pseudomonas aeruginosa [6]) of 32 µg/mL (≈ 83.4 µM). The MIC (Pseudomonas aeruginosa [7]) was 32 µg/mL (≈ 83.4 µM), the MIC (Pseudomonas aeruginosa [8]) was 32 µg/mL (≈ 83.4 µM) and the MIC (Pseudomonas aeruginosa [9]) was 32 µg/mL (≈ 83.4 µM). It also gave an MIC (Pseudomonas aeruginosa [10]) of 128 µg/mL (≈ 334 µM), an MIC (Pseudomonas aeruginosa [11]) of 128 µg/mL (≈ 334 µM) and an MIC (Klebsiella pneumoniae [12]) of 4 µg/mL (≈ 10.4 µM). It also gave an MIC (Klebsiella pneumoniae [13]) of 32 µg/mL (≈ 83.4 µM), an MIC (Enterobacter cloacae) of 32 µg/mL (≈ 83.4 µM) and an MIC (Klebsiella oxytoca [14]) of 32 µg/mL (≈ 83.4 µM). The MIC (Klebsiella oxytoca [15]) was 32 µg/mL (≈ 83.4 µM), the MIC (Pseudomonas aeruginosa [16]) was 32 µg/mL (≈ 83.4 µM) and the MIC (Pseudomonas aeruginosa [17]) was 128 µg/mL (≈ 334 µM). It also gave an MIC (Pseudomonas aeruginosa [18]) of 128 µg/mL (≈ 334 µM), an MIC (Pseudomonas aeruginosa [19]) of 32 µg/mL (≈ 83.4 µM) and a survival at 0.6 mg/kg (Pseudomonas aeruginosa [20]) of 23%. It also gave a survival at 0.6 mg/kg (Escherichia coli) of 44%, a survival at 0.6 mg/kg (Klebsiella pneumoniae [21]) of 69% and an MIC (Pseudomonas aeruginosa [22]) of 32 µg/mL (≈ 83.4 µM).
